The conditions of data set [1]: Camptosar Prescribing Information; cited from earlier work.
The conditions of data set [2]: mouse, 2000 ng/mL, pH 5.5.
Protocol: (§2) Aliquot of 100 μL were taken from stability samples in pre-labelled micro-centrifuge tubes. 5 μL of cetirizine working internal standard (5 μg/mL) was added to each tube and vortexed well. 1 mL acetonitrile was added to each tube and vortexed well and then centrifuge at 10000 RPM for 5 min at room temperature. The supernatant was collected in ria vials and evaporated to dryness under nitrogen stream. The samples were reconstituted in 1 mL of 0.1% formic acid in water: acetonitrile 30:70 v/v. The prepared samples were analyzed using LC-MS/MS method. Quantification was done against SN-38 standard, prepared at 2000 ng/mL concentration. SN-38 standard prepared by spiking 5 μL of SN-38 working standard to 95 μL of blank mice tumor homogenate to achieve 2000 ng/mL concentration and vortexed well and processed as described.
(§3) LC-MS/MS Method: Chromatographic separation was achieved on Inertsil C8-3 (50×4.6 mm, 5 μ) with a flow rate of 250 μL/min and an injection volume of 10 μL. The sample cooler was maintained at 10° C. The column oven temperature was set to 40° C. The mobile phase consisted of 0.1% formic acid in Milli Q water and acetonitrile in the ratio of 30:70 v/v, respectively. […] The overall chromatographic run time was 4.0 minutes.
(§4) Detection was performed by tandem mass spectrometry (TSQ Quantum, Discovery MAX, Thermo Electron Corporation) and peak areas were integrated using LCquan software version 2.9 QF1.
(§5) 0 hr standard area was considered as 100% for calculation.
Data set [3] can be described thus: Comparison of solubility in water. It counts as physicochemical. An excerpt:
Comparison of Solubility of Compound I.4 in Water with SN-38

The test system of the next data set is MX-1 cells. Description: In-vitro cancer cell growth inhibition assay (MTT). It counts as cell-based. Particulars: Homo sapiens, MX1, 144 h, read-out: IC50 (nM) MX-1. Here is the method:
(§1) The compounds of the present invention were evaluated for their ability to inhibit the growth of various cell line models of small cell lung cancer (SCLC), colon cancer, pancreatic cancer and triple negative breast cancer (TNBC) in-vitro. Details of the cell lines and their respective complete growth media are described in Table 3. The growth inhibition assay was carried out as described below. Briefly, cells in complete growth media were seeded in 96-well plates at appropriate cell densities (seeding density details described in Table 3) and incubated at 37° C., 5% CO2 (3-4 hours for NCI-H526, NCI-H69, NCI-H187 and overnight for the rest of the cells). Serial dilutions of test compound in DMSO were added to the cells while maintaining the final DMSO concentration of 0.4%-0.5% in the well. Plates were incubated for 96-144 h (the exact duration for each assay is described in Table 3) at 37° C., 5% CO2. Subsequently, MTT (final concentration 0.5 mg/mL in media) was incubated with the cells at 37° C., 5% CO2 for 4-5 hours. The formazan crystals were dissolved overnight at 37° C., 5% CO2 using 100 μL extractant (10% SDS in 0.01N HCl) and quantified using absorbance at 570 nm with reference wavelength 630 nm. Growth inhibition was represented as percent decrease in absorbance compared to vehicle treated cells.

The next data set has as its system MDA-MB-468 cells. As to the kind of experiment: In-vitro cancer cell growth inhibition assay (MTT). To be noted: Homo sapiens, MDA-MB-468, 96 h, read-out: IC50 (nM) MDA-MB-468. It counts as cell-based. Here is the method:
as §1

The next data set relates to MDA-MB-231 cells. As to the kind of experiment: In-vitro cancer cell growth inhibition assay (MTT). It counts as cell-based. To be noted: Homo sapiens, MDA-MB-231, 96 h, read-out: IC50 (nM) MDA-MB-231. Here is the method: as §1
Data set [4] in a line: In-vitro stability in mice tumor lysate. To be noted: for % Remaining in tumor lysate: spiked 2000 ng/mL, pH 5.5, 37° C.
Protocol: as §2, §3, §4, §5
Data set [5] can be described thus: Buffer stability (phosphate buffer, 37° C., HPLC). It counts as physicochemical. Particulars: 200 μg/ml. Here is the method:
The representative compounds were first dissolved in a minimum quantity of DMSO in a volumetric flask and diluted up to the mark with diluent (water: acetonitrile 30:70). […] After the elapsed time, the buffer samples were diluted 4 times with acetonitrile and injected into an HPLC system. Quantification of representative compounds was done by HPLC.
HPLC method: Chromatographic separation was achieved on a Hypersil BDS C18 (100×4.6 mm, 5 μ) column using 25 mM KH2PO4 buffer (pH 7 with TEA): acetonitrile, 90:10 v/v as mobile phase-A and 25 mM KH2PO4 buffer (pH 7 with TEA): acetonitrile 30:70 v/v as mobile phase-B. The gradient started with initially 5% B to 45% B in 10 mins followed by 80% B in 22 mins and held up to 25 mins and then returned to initial conditions at 26 mins and continued up to 30 mins. The injection volume was kept 10 μL and the flow rate was kept at 1.0 mL/min. The UV-Vis Detector was set at 220 nm, the column oven was set at 37° C. and the sample cooler was set at […]. Total chromatographic runtime was 30 min.

A further data set concerns NCI H187 cells. As to the kind of experiment: In-vitro cancer cell growth inhibition assay (MTT). Particulars: Homo sapiens, NCI-H187, read-out: IC50 (nM) NCI H187. It counts as cell-based. As to the method: as §1, with “Plates were incubated for 96-144 h (the exact duration for each assay is described in Table 3) at 37° C., 5% CO2.” left out
A further data set concerns PANC-1 cells. As to the kind of experiment: In-vitro cancer cell growth inhibition assay (MTT). It counts as cell-based. Particulars: Homo sapiens, PANC-1, 96 h, read-out: IC50 (nM) PANC-1. As to the method: as §1
A further data set relates to NCI H69 cells. Description: In-vitro cancer cell growth inhibition assay (MTT). It counts as cell-based. To be noted: Homo sapiens, NCI-H69, 144 h, read-out: IC50 (nM) NCI H69. Here is the method:
as §1

Another data set concerns HT-29 cells. As to the kind of experiment: In-vitro cancer cell growth inhibition assay (MTT). To be noted: Homo sapiens, HT-29, 96 h, read-out: IC50 (nM) HT-29. The data set is classed as cell-based. As to the method:
as §1

The subject of the next data set is NCI H526 cells. Description: In-vitro cancer cell growth inhibition assay (MTT). It counts as cell-based. Particulars: Homo sapiens, NCI-H526, 96-144 h, read-out: IC50 (nM) NCI H526. Here is the method: as §1

Counter-ions that a name gives are not always drawn. Like-named read-outs stand apart in the source and are kept apart here. Some results are limits rather than exact numbers.

For `CCc1c2c(nc3ccc(O)cc13)-c1cc3c(c(=O)n1C2)COC(=O)[C@]3(O)CC` [SN-38], the “protein bound in plasma” value in data set [1] is listed as “About 96%”. Also, the “% Remaining in tumor lysate” value in data set [2] (0 h) came to 100.0%; in [2] (1 h), 94.9%; in data set [2] (2 h), 90.7%; in [2] (4 h), 100.1%; in data set [2] (6 h), 88.9%; in data set [2] (8 h) it was 91.4%. In [3], the “Solubility in water” value is “Practically insoluble in water”.

Consider `CCc1c2c(nc3ccc(O)cc13)-c1cc3c(c(=O)n1C2)COC(=O)[C@@]3(CC)OC(=O)OCCSSCCOC(=O)N(C)c1ccc(N2CCN(C)CC2)cc1` [Compound I.4, 2-(2-{N-Methyl-N-[4-(4-methylpiperazin-1-yl)phenyl]carbamoyloxy}ethyldisulfanyl)ethyl [(4S)-4,11-diethyl-3,4,12,14-tetrahydro-9-hydroxy-1H-pyrano[3′,4′:6,7]indolizino[1,2-b]quinoline-3,14-(4H,12H)dione-4-yl] carbonate dihydrochloride], for which the half-maximal inhibitory concentration (IC50) (commonly the concentration at which inhibition is half-maximal) was 6.9 nM in the data set on MX-1 cells, 8.2 nM in the data set on MDA-MB-468 cells and 129 nM in the data set on MDA-MB-231 cells. For the same molecule, the “% Remaining in tumor lysate” value in data set [4] (0 hr) is on record as 100.0%; in data set [4] (1 hr), 0.0%; in data set [4] (2 hr), 0.0%; in data set [4] (4 hr), 0.0%; in data set [4] (6 hr), 0.0%; in data set [4] (8 hr), 0.0%. Further, the “time after incubation until cleaved to give active SN-38” value in data set [4] (tumor lysate, 37° C.) was ≤ 1 h. The Solubility in water result in [3] is “Solubility: 100 mg/11 ml in water”.

As for `CCc1c2c(nc3ccc(O)cc13)-c1cc3c(c(=O)n1C2)COC(=O)[C@@]3(CC)OC(=O)OCCSSCCOC(=O)Nc1ccc(N2CCN(C)CC2)cc1.Cl` [Compound I.2, 2-(2-{N-[4-(4-Methylpiperazin-1-yl)phenyl]carbamoyloxy}ethyldisulfanyl)ethyl [(4S)-4,11-diethyl-3,4,12,14-tetrahydro-9-hydroxy-1H-pyrano[3′,4′:6,7]indolizino[1,2-b]quinoline-3,14-(4H,12H)dione-4-yl] carbonate hydrochloride], the “% of Unconverted Compounds of Formula I” value in data set [5] (pH 4.7, 0 hr) was found to be 100%; in data set [5] (pH 4.7, 2 hr), 97.3%; in [5] (pH 4.7, 4 hr), 100%; in [5] (pH 4.7, 6 hr), 100%; in [5] (pH 4.7, 8 hr) it was 100%; in [5] (pH 6.0, 0 hr), 100%. For the same molecule, the “% of Unconverted Compounds of Formula I” value in data set [5] (pH 6.0, 2 hr) worked out at 95.5%; in [5] (pH 6.0, 4 hr), 98.5%; in data set [5] (pH 6.0, 6 hr) it was 100%; in [5] (pH 6.0, 8 hr), 100%; in data set [5] (pH 7.4, 0 hr), 100%; in data set [5] (pH 7.4, 2 hr) it was 90.1%. Further, the “% of Unconverted Compounds of Formula I” value was determined as 93.5% in data set [5] (pH 7.4, 4 hr); 88.7% in [5] (pH 7.4, 6 hr); 91.6% in data set [5] (pH 7.4, 8 hr). Moreover, the IC50 with NCI H187 cells worked out at 0.27 nM; in the data set with PANC-1 cells, 508 nM; with NCI H69 cells it was 1.3 nM; in the data set on MX-1 cells, 5.9 nM; with MDA-MB-468 cells, 6.6 nM; in the data set on HT-29 cells, 31 nM. The IC50 in the data set with MDA-MB-231 cells is 112 nM; in the data set with NCI H526 cells, 1.58 nM.

Values taken from patent US20220242874A1, “CAMPTOTHECIN DERIVATIVES” (SUN PHARMA ADVANCED RESEARCH COMPANY LIMITED, priority 2019, published 2022).
